Test results taken from PMC11378298 (ACS Chemical Neuroscience, 2024).

Legend:
CDK1/cyclinB = biological target: T1, CDK1/cyclinB (Homo sapiens, UniProt P06493); experiment: Kinase selectivity, radiometric [Km ATP] KinaseProfiler; format: biochemical
T1 construct: purchased Eurofins (KinaseProfiler service)
Protocol: (§1) We selected those kinases with the greatest potential for interaction based on structural homology, as indicated by the ChemPartner panel.
(§2) Figure 7 Kinase selectivity for compound 36. Data are presented as percent of kinases’ activity in the presence of 1 μM of compound 36. Kinases’ panel (CMGC group, human enzymes): CDK1/cyclinB, CDK2/cyclinA, CDK4/cyclinD3, CDK6/cyclinD3, CDK7/cyclinH/MAT1, CDK9/cyclinT1, DYRK1A, DYRK1B, GSK-3α, GSK-3β, JNK2α2, JNK3, MAPK1, MAPK2, SAPK2a(T106M), SAPK2b, SAPK3.
(§3) Selectivity studies were performed at Eurofins in Kinase Enzymatic Radiometric [Km ATP]
(§4) Kinase Profiler Lead Hunter Assay. The percentage of enzymatic activity was measured at the
(§5) concentration of 1 µM of compound 36 in duplicate for 17 selected kinases.
(§6) Table S12. Inhibitory activity of compound 36 against selected kinases.
(§7) *Where n = 2, the value reported here is actually range / √ 2.

CDK2/cyclinA = biological target: T2, CDK2/cyclinA (Homo sapiens, UniProt P24941); experiment: as above; format: biochemical
T2 construct: purchased Eurofins (KinaseProfiler service)
Protocol: as §1, §2, §3, §4, §5, §6, §7

CDK4/cyclinD3 = biological target: T3, CDK4/cyclinD3 (Homo sapiens, UniProt P11802); experiment: as above; format: biochemical
T3 construct: purchased Eurofins (KinaseProfiler service)
Protocol: as §1, §2, §3, §4, §5, §6, §7

CDK6/cyclinD3 = biological target: T4, CDK6/cyclinD3 (Homo sapiens, UniProt Q00534); experiment: as above; format: biochemical
T4 construct: purchased Eurofins (KinaseProfiler service)
T4 sequence (Q00534 whole entry): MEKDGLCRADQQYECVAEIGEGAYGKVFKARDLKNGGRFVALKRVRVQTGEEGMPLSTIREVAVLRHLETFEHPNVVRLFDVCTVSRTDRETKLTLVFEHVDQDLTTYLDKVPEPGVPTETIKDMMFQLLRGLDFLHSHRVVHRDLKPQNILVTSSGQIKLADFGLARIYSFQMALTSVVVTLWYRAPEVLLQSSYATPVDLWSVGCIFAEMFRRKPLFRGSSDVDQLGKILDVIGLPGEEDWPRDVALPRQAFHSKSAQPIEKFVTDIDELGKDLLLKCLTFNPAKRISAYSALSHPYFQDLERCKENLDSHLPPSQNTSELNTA
T4 sequence (P30281 whole entry partner): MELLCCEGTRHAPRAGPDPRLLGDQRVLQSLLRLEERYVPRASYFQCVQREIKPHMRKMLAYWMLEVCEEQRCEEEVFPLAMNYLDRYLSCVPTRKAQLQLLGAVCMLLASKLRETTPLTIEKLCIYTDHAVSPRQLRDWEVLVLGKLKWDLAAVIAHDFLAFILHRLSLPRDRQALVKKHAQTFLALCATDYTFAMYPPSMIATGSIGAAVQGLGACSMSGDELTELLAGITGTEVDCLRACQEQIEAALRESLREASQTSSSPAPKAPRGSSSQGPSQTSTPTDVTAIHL
Protocol: as §1, §2, §3, §4, §5, §6, §7

CDK7/cyclinH/MAT1 = biological target: T5, CDK7/cyclinH/MAT1 (Homo sapiens, UniProt P50613); experiment: as above; format: biochemical
T5 construct: purchased Eurofins (KinaseProfiler service)
T5 sequence (P50613 whole entry): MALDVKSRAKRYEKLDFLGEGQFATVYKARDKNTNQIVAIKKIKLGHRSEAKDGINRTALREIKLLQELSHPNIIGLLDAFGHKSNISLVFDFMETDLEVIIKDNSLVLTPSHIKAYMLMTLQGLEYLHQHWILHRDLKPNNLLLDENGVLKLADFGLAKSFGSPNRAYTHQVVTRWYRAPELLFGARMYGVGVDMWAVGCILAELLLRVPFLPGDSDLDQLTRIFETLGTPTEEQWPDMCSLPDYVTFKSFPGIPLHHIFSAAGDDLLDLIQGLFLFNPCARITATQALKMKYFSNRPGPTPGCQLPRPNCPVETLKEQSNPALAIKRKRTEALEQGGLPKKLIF
T5 sequence (P51946 whole entry partner): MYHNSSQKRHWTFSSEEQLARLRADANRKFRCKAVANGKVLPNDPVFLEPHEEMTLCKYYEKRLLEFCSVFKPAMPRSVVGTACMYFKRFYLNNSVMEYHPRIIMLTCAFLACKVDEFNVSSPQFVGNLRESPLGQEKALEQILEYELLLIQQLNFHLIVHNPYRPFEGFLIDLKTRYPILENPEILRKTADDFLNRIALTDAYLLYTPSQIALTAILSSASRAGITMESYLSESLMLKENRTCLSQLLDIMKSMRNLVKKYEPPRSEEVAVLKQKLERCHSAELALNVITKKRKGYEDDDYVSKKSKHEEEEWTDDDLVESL
T5 sequence (P51948 whole entry partner): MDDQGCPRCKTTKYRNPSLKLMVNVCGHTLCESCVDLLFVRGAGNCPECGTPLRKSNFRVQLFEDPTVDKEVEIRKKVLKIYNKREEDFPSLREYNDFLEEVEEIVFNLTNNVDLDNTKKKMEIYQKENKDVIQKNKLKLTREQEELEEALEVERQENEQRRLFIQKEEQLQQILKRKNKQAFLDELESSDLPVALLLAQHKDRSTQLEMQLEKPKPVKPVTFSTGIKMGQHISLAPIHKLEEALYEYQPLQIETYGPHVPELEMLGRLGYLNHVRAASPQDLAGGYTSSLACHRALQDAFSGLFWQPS
Protocol: as §1, §2, §3, §4, §5, §6, §7

CDK9/cyclin T1 = biological target: T6, CDK9/cyclin T1 (Homo sapiens, UniProt P50750); experiment: as above; format: biochemical
T6 construct: purchased Eurofins (KinaseProfiler service)
T6 sequence (P50750 whole entry): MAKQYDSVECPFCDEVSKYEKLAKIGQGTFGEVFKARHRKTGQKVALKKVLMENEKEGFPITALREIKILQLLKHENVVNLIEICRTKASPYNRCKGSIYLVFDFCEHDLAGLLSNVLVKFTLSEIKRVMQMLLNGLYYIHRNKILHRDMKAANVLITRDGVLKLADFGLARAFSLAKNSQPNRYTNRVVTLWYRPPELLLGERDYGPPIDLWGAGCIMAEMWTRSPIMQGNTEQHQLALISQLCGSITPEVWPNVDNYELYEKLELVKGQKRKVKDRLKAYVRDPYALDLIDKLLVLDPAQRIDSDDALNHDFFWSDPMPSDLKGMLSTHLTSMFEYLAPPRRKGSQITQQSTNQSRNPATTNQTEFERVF
T6 sequence (O60563 whole entry partner): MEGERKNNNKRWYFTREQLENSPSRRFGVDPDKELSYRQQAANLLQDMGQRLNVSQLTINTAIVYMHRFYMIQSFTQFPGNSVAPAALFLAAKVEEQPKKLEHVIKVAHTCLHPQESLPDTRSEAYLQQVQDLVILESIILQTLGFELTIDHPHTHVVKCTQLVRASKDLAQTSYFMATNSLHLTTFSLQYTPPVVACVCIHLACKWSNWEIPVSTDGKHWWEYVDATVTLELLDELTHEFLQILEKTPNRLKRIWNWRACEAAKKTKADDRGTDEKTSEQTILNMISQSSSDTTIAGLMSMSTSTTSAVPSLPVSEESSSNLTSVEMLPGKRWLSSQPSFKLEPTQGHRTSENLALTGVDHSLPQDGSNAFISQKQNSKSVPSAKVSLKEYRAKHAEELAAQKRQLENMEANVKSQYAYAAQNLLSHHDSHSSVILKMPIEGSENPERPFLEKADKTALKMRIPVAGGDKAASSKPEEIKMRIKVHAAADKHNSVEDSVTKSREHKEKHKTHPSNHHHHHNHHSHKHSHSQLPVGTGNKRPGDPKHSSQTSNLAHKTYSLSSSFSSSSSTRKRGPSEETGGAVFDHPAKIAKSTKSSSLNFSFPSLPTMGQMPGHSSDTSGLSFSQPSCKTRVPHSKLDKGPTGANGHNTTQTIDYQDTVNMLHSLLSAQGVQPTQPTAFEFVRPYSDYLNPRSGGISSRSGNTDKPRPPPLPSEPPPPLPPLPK
Protocol: as §1, §2, §3, §4, §5, §6, §7

DYRK1A = biological target: T7, DYRK1A (Homo sapiens, UniProt Q13627); experiment: as above; format: biochemical; settings: duplicate
T7 construct: purchased Eurofins (KinaseProfiler service)
Protocol: as §1, §2, §3, §4, §5, §6, §7

DYRK1B = biological target: T8, DYRK1B (Homo sapiens, UniProt Q9Y463); experiment: as above; format: biochemical; settings: duplicate
T8 construct: purchased Eurofins (KinaseProfiler service)
Protocol: as §1, §2, §3, §4, §5, §6, §7

GSK-3α = biological target: T9, GSK-3α (Homo sapiens, UniProt P49840); experiment: as above; format: biochemical; settings: duplicate
T9 construct: purchased Eurofins (KinaseProfiler service)
Protocol: as §1, §2, §3, §4, §5, §6, §7

JNK2α2 = biological target: T10, JNK2α2 (Homo sapiens, UniProt P45984); experiment: as above; format: biochemical
T10 construct: purchased Eurofins (KinaseProfiler service)
T10 sequence (P45984 whole entry): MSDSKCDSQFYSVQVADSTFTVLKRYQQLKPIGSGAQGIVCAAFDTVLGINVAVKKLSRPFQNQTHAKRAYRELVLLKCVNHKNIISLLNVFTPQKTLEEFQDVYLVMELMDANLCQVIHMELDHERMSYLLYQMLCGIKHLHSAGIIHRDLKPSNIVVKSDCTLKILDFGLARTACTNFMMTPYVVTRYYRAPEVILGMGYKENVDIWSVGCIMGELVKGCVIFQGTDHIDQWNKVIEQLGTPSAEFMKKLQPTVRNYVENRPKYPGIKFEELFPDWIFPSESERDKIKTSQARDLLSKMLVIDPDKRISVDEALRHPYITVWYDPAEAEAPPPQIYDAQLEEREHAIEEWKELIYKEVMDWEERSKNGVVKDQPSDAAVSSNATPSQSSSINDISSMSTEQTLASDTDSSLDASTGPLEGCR
Protocol: as §1, §2, §3, §4, §5, §6, §7

JNK3 = biological target: T11, JNK3 (Homo sapiens, UniProt P53779); experiment: as above; format: biochemical
T11 construct: purchased Eurofins (KinaseProfiler service)
T11 sequence (P53779 whole entry): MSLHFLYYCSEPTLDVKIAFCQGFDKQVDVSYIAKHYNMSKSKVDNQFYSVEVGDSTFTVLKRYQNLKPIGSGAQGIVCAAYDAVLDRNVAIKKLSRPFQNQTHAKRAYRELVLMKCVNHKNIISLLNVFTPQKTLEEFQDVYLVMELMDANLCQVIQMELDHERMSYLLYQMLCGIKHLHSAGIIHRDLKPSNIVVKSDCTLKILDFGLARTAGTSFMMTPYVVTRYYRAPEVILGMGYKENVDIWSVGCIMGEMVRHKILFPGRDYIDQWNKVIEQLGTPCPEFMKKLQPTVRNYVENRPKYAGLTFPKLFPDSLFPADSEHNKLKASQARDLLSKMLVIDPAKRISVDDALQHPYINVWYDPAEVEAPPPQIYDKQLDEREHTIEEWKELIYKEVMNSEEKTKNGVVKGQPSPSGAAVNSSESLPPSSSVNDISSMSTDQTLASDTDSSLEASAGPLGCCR
Protocol: as §1, §2, §3, §4, §5, §6, §7

MAPK1 = biological target: T12, MAPK1 (Homo sapiens, UniProt P27361); experiment: as above; format: biochemical
T12 construct: purchased Eurofins (KinaseProfiler service)
Protocol: as §1, §2, §3, §4, §5, §6, §7

MAPK2 = biological target: T13, MAPK2 (Homo sapiens, UniProt P28482); experiment: as above; format: biochemical
T13 construct: purchased Eurofins (KinaseProfiler service)
T13 sequence (P28482 whole entry): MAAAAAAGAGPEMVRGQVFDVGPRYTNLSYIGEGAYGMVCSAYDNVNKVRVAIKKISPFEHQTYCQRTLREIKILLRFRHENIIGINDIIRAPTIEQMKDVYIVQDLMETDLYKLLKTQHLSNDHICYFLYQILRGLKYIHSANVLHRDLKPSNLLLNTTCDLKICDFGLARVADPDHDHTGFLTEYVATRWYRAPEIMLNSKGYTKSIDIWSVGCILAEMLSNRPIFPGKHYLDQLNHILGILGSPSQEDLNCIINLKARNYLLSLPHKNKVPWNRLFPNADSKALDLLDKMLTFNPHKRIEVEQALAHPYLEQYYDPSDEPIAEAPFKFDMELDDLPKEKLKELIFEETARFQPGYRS
Protocol: as §1, §2, §3, §4, §5, §6, §7

SAPK2a(T106M) = biological target: T14, SAPK2a(T106M) (Homo sapiens, UniProt Q16539, T106M); experiment: as above; format: biochemical
T14 construct: purchased Eurofins (KinaseProfiler service)
T14 sequence (Q16539 whole entry T106M): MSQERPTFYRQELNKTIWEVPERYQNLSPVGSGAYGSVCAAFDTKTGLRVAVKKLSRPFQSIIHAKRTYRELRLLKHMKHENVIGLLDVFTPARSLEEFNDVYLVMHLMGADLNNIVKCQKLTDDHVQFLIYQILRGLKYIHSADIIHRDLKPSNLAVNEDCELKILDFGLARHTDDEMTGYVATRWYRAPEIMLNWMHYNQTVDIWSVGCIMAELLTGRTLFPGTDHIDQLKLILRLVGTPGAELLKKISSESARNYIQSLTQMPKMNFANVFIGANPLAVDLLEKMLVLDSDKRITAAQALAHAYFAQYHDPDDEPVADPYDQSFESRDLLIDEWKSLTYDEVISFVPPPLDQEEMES
Protocol: as §1, §2, §3, §4, §5, §6, §7

SAPK2b = biological target: T15, SAPK2b (Homo sapiens, UniProt Q15759); experiment: as above; format: biochemical
T15 construct: purchased Eurofins (KinaseProfiler service)
Protocol: as §1, §2, §3, §4, §5, §6, §7

SAPK3 = biological target: T16, SAPK3 (Homo sapiens, UniProt P53778); experiment: as above; format: biochemical
T16 construct: purchased Eurofins (KinaseProfiler service)
T16 sequence (P53778 whole entry): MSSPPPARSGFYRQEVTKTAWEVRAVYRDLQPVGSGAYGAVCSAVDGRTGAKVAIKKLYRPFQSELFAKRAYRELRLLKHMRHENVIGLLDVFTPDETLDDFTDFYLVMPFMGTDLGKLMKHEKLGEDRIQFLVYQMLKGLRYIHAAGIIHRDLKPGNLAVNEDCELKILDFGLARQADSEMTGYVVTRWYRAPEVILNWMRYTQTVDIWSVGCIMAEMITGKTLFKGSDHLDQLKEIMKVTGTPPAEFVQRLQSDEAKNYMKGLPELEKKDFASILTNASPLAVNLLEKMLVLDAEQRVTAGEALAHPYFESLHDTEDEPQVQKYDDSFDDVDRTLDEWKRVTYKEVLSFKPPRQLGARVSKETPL
Protocol: as §1, §2, §3, §4, §5, §6, §7

GSK-3β = GSK-3β (Homo sapiens, UniProt P49841); experiment: biochemical
Protocol: as §1, §2, §3, §4, §5, §6, §7

## O=C(Nc1cc(-c2ccc(-c3ncon3)s2)ccn1)C1CC1 [Compound 36, N-(4-(5-(1,2,4-Oxadiazol-3-yl)thiophen-2-yl)pyridin-2-yl)cyclopropanecarboxamide]
CDK1/cyclinB
  inhibition at 1 µM: 58%
CDK1/cyclinB; duplicate
  % of enzyme activity at 1μM of 36 ±SD, CDK1/cyclinB: 42±4%
CDK2/cyclinA
  inhibition at 1 µM: 63%
CDK2/cyclinA; duplicate
  % of enzyme activity at 1μM of 36 ±SD, CDK2/cyclinA: 37±1%
CDK4/cyclinD3
  inhibition at 1 µM: < 50%
CDK4/cyclinD3; duplicate
  % of enzyme activity at 1μM of 36 ±SD, CDK4/cyclinD3: 97±9%
CDK6/cyclinD3
  inhibition at 1 µM: < 50%
CDK6/cyclinD3; duplicate
  % of enzyme activity at 1μM of 36 ±SD, CDK6/cyclinD3: 90±1%
CDK7/cyclinH/MAT1
  inhibition at 1 µM: < 50%
CDK7/cyclinH/MAT1; duplicate
  % of enzyme activity at 1μM of 36 ±SD, CDK7/cyclinH/ MAT1: 93±7%
CDK9/cyclin T1
  inhibition at 1 µM: 84%
CDK9/cyclin T1; duplicate
  % of enzyme activity at 1μM of 36 ±SD, CDK9/cyclin T1: 16±2%
DYRK1A
  % of enzyme activity at 1μM of 36 ±SD, DYRK1A: 11±1%
DYRK1B
  % of enzyme activity at 1μM of 36 ±SD, DYRK1B: 26±6%
GSK-3α
  % of enzyme activity at 1μM of 36 ±SD, GSK-3α: 2±1%
JNK2α2
  inhibition at 1 µM: < 50%
JNK2α2; duplicate
  % of enzyme activity at 1μM of 36 ±SD, JNK2α2: 100±7%
JNK3
  inhibition at 1 µM: < 50%
JNK3; duplicate
  % of enzyme activity at 1μM of 36 ±SD, JNK3: 73±6%
MAPK1
  inhibition at 1 µM: < 50%
MAPK1; duplicate
  % of enzyme activity at 1μM of 36 ±SD, MAPK1: 100±1%
MAPK2
  inhibition at 1 µM: < 50%
MAPK2; duplicate
  % of enzyme activity at 1μM of 36 ±SD, MAPK2: 98±6%
SAPK2a(T106M)
  inhibition at 1 µM: < 50%
SAPK2a(T106M); duplicate
  % of enzyme activity at 1μM of 36 ±SD, SAPK2a(T106M): 95±7%
SAPK2b
  inhibition at 1 µM: < 50%
SAPK2b; duplicate
  % of enzyme activity at 1μM of 36 ±SD, SAPK2b: 100±2%
SAPK3; 1 μM, duplicate
  % of enzyme activity at 1μM of 36 ±SD, SAPK3: 50±3%
SAPK3; read-out: inhibition of SAPK3
  inhibition at 1 µM: < 50%
GSK-3β; 1 μM, duplicate
  % of enzyme activity at 1μM of 36 ±SD, GSK-3β: 5±1%
GSK-3β; read-out: inhibition of GSK-3β
  inhibition at 1 µM: 92%
